For this test, the system named is production of TNF by monocytes activated with bacterial lipopolysaccharide (LPS). Description: Lipopolysaccharide-activated monocyte TNF production assay. Type of test: cell-based. As to conditions: Homo sapiens, read-out: IC50 values in the monocyte assay (LPS induced TNF release). The protocol: Lipopolysaccharide-Activated Monocyte TNF Production Assay
Test compounds were evaluated in vitro for the ability to inhibit the production of TNF by monocytes activated with bacterial lipopolysaccharide (LPS). Fresh residual source leukocytes (a byproduct of plateletpheresis) were obtained from a local blood bank, and peripheral blood mononuclear cells (PBMCs) were isolated by density gradient centrifugation on Ficol-Paque Plus (Pharmacia). PBMCs were suspended at 2×10^6/ml in DMEM supplemented to contain 2% FCS, 10 mM, 0.3 mg/ml […], 100 U/ml penicillin G and […] streptomycin sulfate (complete media). Cells were plated into Falcon flat bottom, 96 well culture plates (200 μl/well) and cultured overnight at 37° C. and 6% CO2. Non-adherent cells were removed by washing with 200 μl/well of fresh medium. Wells containing adherent cells (˜70% monocytes) were replenished with 100 μl of fresh medium.
Preparation of Test Compound Stock Solutions
Test compounds were dissolved in […]. Compound stock solutions were prepared to an initial concentration of […]. Stocks were diluted initially to 20-200 μM in complete media. Nine two-fold serial dilutions of each compound were then prepared in complete medium.
Treatment of Cells with Test Compounds and Activation of TNF Production with Lipopolysaccharide
One hundred microliters of each test compound dilution were added to microtiter wells containing adherent monocytes and 100 μl complete medium. Monocytes were cultured with test compounds for 60 min at which time 25 μl of complete medium containing 30 ng/ml lipopolysaccharide from E. coli K532 were added to each well. Cells were cultured an additional 4 hrs. Culture supernatants were then removed and TNF presence in the supernatants was quantified using an ELISA.
Flat bottom, 96 well Corning High Binding ELISA plates were coated overnight (4° C.) with 150 μL/well of 3 μg/ml murine anti-human TNF-α MAb (R&D Systems #MAB210). Wells were then blocked for 1 hr at room temperature with 200 μL/well of CaCl2-free ELISA buffer supplemented to contain 20 mg/ml BSA (standard ELISA buffer: […], 150 mM NaCl, 2 mM CaCl2, 0.15 mM thimerosal, pH 7.4). Plates were washed and replenished with 100 μl of test supernatants (diluted 1:3) or standards. Standards consisted of eleven 1.5-fold serial dilutions from a stock of 1 ng/ml recombinant human TNF (R&D Systems). Plates were incubated at room temperature for 1 hr on orbital shaker (300 rpm), washed and replenished with 100 μl/well of 0.5 ug/ml goat anti-human TNF-α (R&D systems #AB-210-NA) biotinylated at a 4:1 ratio. Plates were incubated for 40 min, washed and replenished with 100 μl/well of alkaline phosphatase-conjugated streptavidin (Jackson ImmunoResearch #016-050-084) at 0.02 ug/ml. Plates were incubated 30 min, washed and replenished with 200 μl/well of 1 mg/ml of p-nitrophenyl phosphate. After 30 min, plates were read at 405 nm on a Vmax plate reader.
Standard curve data were fit to a second order polynomial and unknown TNF-α concentrations determined from their OD by solving this equation for concentration. TNF concentrations were then plotted vs. test compound concentration using a second order polynomial. This equation was then used to calculate the concentration of test compounds causing a 50% reduction in TNF production.
`Cc1ccc(C(=O)Nc2ccc(OCCCN(C)C)cc2)cc1-c1ccc2nc(N)ncc2c1` [Example 69, 3-(2-amino-6-quinazolinyl)-N-(4-((3-(dimethylamino)propyl)oxy)phenyl)-4-methylbenzamide]: the half-inhibitory concentration (IC50) (commonly the concentration needed to halve the response being measured) is at most 25 µM.

Turning to `Nc1ncc2cc(-c3cc(NC(=O)c4cccc(C(F)(F)F)c4F)ccc3Cl)ccc2n1` [Example 481, N-(3-(2-amino-6-quinazolinyl)-4-chlorophenyl)-2-fluoro-3-(trifluoromethyl)benzamide], the IC50 is at most 25 µM.

Consider `Cc1c(NC(=O)c2ccc(Cl)c(-c3ccc4nc(N)ncc4c3)c2)cccc1C(F)(F)F` [Example 141, 3-(2-amino-6-quinazolinyl)-4-chloro-N-(2-methyl-3-(trifluoromethyl)phenyl)benzamide], for which the concentration for half-maximal inhibition (IC50) is at most 25 µM.

Take `Cc1ccc(C(=O)Nc2cccc3nonc23)cc1-c1ccc2nc(N)ncc2c1` [Example 303, 3-(2-amino-6-quinazolinyl)-N-(2,1,3-benzoxadiazol-4-yl)-4-methylbenzamide]: the concentration for half-maximal inhibition (IC50) was at most 25 µM.

Take `COc1ccc(C(=O)Nc2ccccc2)cc1NC(=O)c1ccc(C)c(-c2ccc3nc(N)ncc3c2)c1` [Example 145, 3-(2-amino-6-quinazolinyl)-4-methyl-N-(2-(methyloxy)-5-((phenylamino)carbonyl)phenyl) benzamide]: the 50% inhibitory concentration (IC50) is at most 25 µM.

For the compound `CNc1ncc2cc(-c3cc(C(=O)Nc4ccc(Cl)c(C(F)(F)F)c4)ccc3C)ccc2n1` [Example 12, N-(4-chloro-3-(trifluoromethyl)phenyl)-4-methyl-3-(2-(methylamino)-6-quinazolinyl)benzamide], the half-inhibitory concentration (IC50) is at most 25 µM.

On to `CNc1ncc2cc(-c3cccc(NC(=O)c4cc(C(F)(F)F)cc(C(F)(F)F)c4)c3C)cnc2n1` [Example 221], for which the IC50 was at most 25 µM.

For the compound `Cc1ccnc(NC(=O)c2ccc(C)c(-c3ccc4nc(N)ncc4c3)c2)c1` [Example 339, 3-(2-amino-6-quinazolinyl)-4-methyl-N-(4-methyl-2-pyridinyl)benzamide], the 50% inhibitory concentration (IC50) is at most 25 µM.

`CCN(CC)CCCOc1ccc(NC(=O)c2ccc(C)c(-c3ccc4nc(N)ncc4c3)c2)cc1C(F)(F)F` [Example 122, 3-(2-amino-6-quinazolinyl)-N-(4-((3-(diethylamino)propyl)oxy)-3-(trifluoromethyl)phenyl)-4-methylbenzamide]: the IC50 was at most 25 µM.

As for `Cc1ccc(C(=O)Nc2cccc(C(F)(F)F)c2F)cc1-c1ccc2nc(Nc3ccc(N4CCN(C)CC4)cc3)ncc2c1` [Example 30, N-(2-fluoro-3-(trifluoromethyl)phenyl)-4-methyl-3-(2-((4-(4-methyl-1-piperazinyl)phenyl)amino)-6-quinazolinyl) benzamide], the IC50 was at most 25 µM.

`CNc1ncc2cc(-c3cc(NC(=O)c4cc(F)cc(C(F)(F)F)c4)ccc3C)cnc2n1` [Example 217, 3-fluoro-N-(4-methyl-3-(2-(methylamino)pyrido[2,3-d]pyrimidin-6-yl)phenyl)-5-(trifluoromethyl) benzamide]: the half-maximal inhibitory concentration (IC50) was at most 25 µM.

Consider `CNc1ncc2cc(-c3cccc(NC(=O)c4cc(C(F)(F)F)ccc4F)c3C)cnc2n1` [Example 223, 2-fluoro-N-(2-methyl-3-(2-(methylamino)pyrido[2,3-d]pyrimidin-6-yl)phenyl)-5-(trifluoromethyl) benzamide], for which the IC50 was at most 25 µM.

In the case of `COc1ccc(OCCCN2CCN(C)CC2)cc1NC(=O)c1ccc(C)c(-c2ccc3nc(N)ncc3c2)c1` [Example 235], the 50% inhibitory concentration (IC50) is at most 25 µM.

In the case of `Cc1ccc(C(=O)Nc2cccc3ncccc23)cc1-c1ccc2nc(N)ncc2c1` [Example 281, 3-(2-amino-6-quinazolinyl)-4-methyl-N-(5-quinolinyl)benzamide], the half-maximal inhibitory concentration (IC50) was at most 25 µM.

Consider `Cc1ccc(C(=O)Nc2cccc(C(F)(F)F)c2F)cc1-c1ccc2nc(NCCN3CCCC3)ncc2c1` [Example 26, N-(2-fluoro-3-(trifluoromethyl)phenyl)-4-methyl-3-(2-((2-(1-pyrrolidinyl)ethyl)amino)-6-quinazolinyl) benzamide], for which the IC50 is at most 25 µM.

As for `Cc1ccc(C(=O)Nc2nc3cc(Cl)ccc3o2)cc1-c1ccc2nc(N)ncc2c1` [Example 342, 3-(2-amino-6-quinazolinyl)-N-(5-chloro-1,3-benzoxazol-2-yl)-4-methylbenzamide], the concentration for half-maximal inhibition (IC50) is at most 25 µM.

Consider `Cc1ccc(NC(=O)c2ccc(C)c(-c3ccc4nc(N)ncc4c3)c2)cc1NC(=O)CN1CCOCC1` [Example 62, 3-(2-amino-6-quinazolinyl)-4-methyl-N-(4-methyl-3-((4-morpholinylacetyl)amino)phenyl) benzamide], for which the half-inhibitory concentration (IC50) is at most 25 µM.

Turning to `Cc1ccc(C(=O)Nc2cc(C(F)(F)F)ccc2N(C)CCCN(C)C)cc1-c1ccc2nc(N)ncc2c1` [Example 114, 3-(2-amino-6-quinazolinyl)-N-(2-((3-(dimethylamino)propyl)(methyl)amino)-5-(trifluoromethyl)phenyl)-4-methylbenzamide], the half-maximal inhibitory concentration (IC50) is at most 25 µM.

On to `COc1cc(OC)cc(C(=O)Nc2cc(-c3ccc4nc(N)ncc4c3)ccc2F)c1` [Example 490, N-(5-(2-amino-6-quinazolinyl)-2-fluorophenyl)-3,5-bis(methyloxy)benzamide], for which the IC50 is at most 25 µM.

As to `CNc1ncc2cc(-c3cc(NC(=O)c4cc(OC)c(OC)c(OC)c4)ccc3C)cnc2n1` [Example 216, N-(4-methyl-3-(2-(methylamino)pyrido[2,3-d]pyrimidin-6-yl)phenyl)-3,4,5-tris(methyloxy)benzamide], the IC50 is at most 25 µM.

For `Cc1ccc(C(=O)Nc2cc(C(C)(C)C)ccc2N(C)CCCN(C)C)cc1-c1ccc2nc(N)ncc2c1` [Example 244, 3-(2-amino-6-quinazolinyl)-N-(2-((3-(dimethylamino)propyl)(methyl)amino)-5-(1,1-dimethylethyl)phenyl)-4-methylbenzamide], the IC50 is at most 25 µM.

Take `Cc1ccc(C(=O)Nc2cccc(C(F)(F)F)c2)cc1-c1ccc2nc(N)ncc2c1` [Example 120, 3-(2-amino-6-quinazolinyl)-4-methyl-N-(3-(trifluoromethyl)phenyl)benzamide]: the IC50 was at most 25 µM.

On to `Cc1ccc(C(=O)Nc2cccc(Cl)c2Cl)cc1-c1ccc2nc(N)ncc2c1` [Example 232, 3-(2-amino-6-quinazolinyl)-N-(2,3-dichlorophenyl)-4-methylbenzamide], for which the half-maximal inhibitory concentration (IC50) is at most 25 µM.

On to `Cc1ccc(C(=O)Nc2cc(C(F)(F)F)ccc2OCCCN(C)C)cc1-c1ccc2nc(N)ncc2c1` [Example 144, 3-(2-amino-6-quinazolinyl)-N-(2-((3-(dimethylamino)propyl)oxy)-5-(trifluoromethyl)phenyl)-4-methylbenzamide], for which the IC50 is at most 25 µM.

As to `Cc1ccc(F)c(NC(=O)c2ccc(C)c(-c3ccc4nc(N)ncc4c3)c2)c1` [Example 147, 3-(2-amino-6-quinazolinyl)-N-(2-fluoro-5-methylphenyl)-4-methylbenzamide], the IC50 was at most 25 µM.

On to `CNc1ncc2cc(-c3cc(C(=O)Nc4cccc(C(F)(F)F)c4)ccc3C)ccc2n1` [Example 18, 4-methyl-3-(2-(methylamino)-6-quinazolinyl)-N-(3-(trifluoromethyl)phenyl)benzamide], for which the IC50 was at most 25 µM.

For the compound `CNc1ncc2cc(-c3cc(NC(=O)c4cccc(C(F)(F)F)c4F)ccc3C)cnc2n1` [Example 202], the 50% inhibitory concentration (IC50) is at most 25 µM.

`Cc1ccc(C(=O)Nc2cc(C(F)(F)F)ccc2F)cc1-c1ccc2nc(N)ncc2c1` [Example 280, 3-(2-amino-6-quinazolinyl)-N-(2-fluoro-5-(trifluoromethyl)phenyl)-4-methylbenzamide]: the IC50 was at most 25 µM.

Regarding `Cc1ccc(C(=O)NC2CC2)cc1-c1ccc2nc(N)ncc2c1` [Example 40, 3-(2-amino-6-quinazolinyl)-N-cyclopropyl-4-methylbenzamide], the concentration for half-maximal inhibition (IC50) is at most 25 µM.

In the case of `Cc1ccc(C(=O)Nc2cccc(C(F)(F)F)c2C)cc1-c1ccc2nc(NC3CCN(C)CC3)ncc2c1` [Example 36, 4-methyl-3-(2-((1-methyl-4-piperidinyl)amino)-6-quinazolinyl)-N-(2-methyl-3-(trifluoromethyl)phenyl)benzamide], the half-inhibitory concentration (IC50) was at most 25 µM.
